Data as given in US8871753B2, “Macrocyclic compounds and their use as kinase inhibitors” (Incyte Corporation, priority 2008, dated 2014).
Where a name gives a salt, the structure may show the parent alone.

How the values were obtained:
Type in all cases: biochemical
[1] = biological target: T1, human JAK2 (a.a. 828-1132) (Homo sapiens, UniProt O60674); experiment: In vitro JAK kinase assay (HTRF, phosphorylation of a biotinylated peptide), JAK2; conditions: Table B1
T1 construct: JAK2 (a.a. 828-1132); His tag (N); made in house; host or cells: insect cells (baculovirus)
In short: (§1)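 Phosphorylation of a biotinylated peptide by the JAK kinase domain, detected by HTRF with Eu-Py20 and SA-APC. ATP was 90 μM for JAK1, 30 μM for JAK2 and 3 μM for JAK3. Reactions ran 1 h at room temperature and were stopped with EDTA, followed by 40 min antibody binding.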

TYK2 = TYK2 (Homo sapiens, UniProt P29597); experiment: TYK2 kinase inhibition (Table A1); conditions: Table B1
[2] = biological target: T2, human JAK3 (a.a. 781-1124) (Homo sapiens, UniProt P52333); experiment: In vitro JAK kinase assay (HTRF, phosphorylation of a biotinylated peptide), JAK3; conditions: Table B1
T2 construct: JAK3 (a.a. 781-1124); His tag (N); made in house; host or cells: insect cells (baculovirus)
In short: as §1

[3] = biological target: T3, Recombinant Human Anaplastic Lymphoma Kinase (Homo sapiens, UniProt Q9UM73); experiment: ALK HTRF kinase assay; conditions: Table B1; cells without percent sign
T3 construct: purchased Invitrogen, Carlsbad, Calif
In short: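 TR-FRET read-out (Eu anti-pTyr antibody + streptavidin-APC) of biotin-peptide phosphorylation by recombinant human enzyme; IC50 by sigmoidal fit with top/bottom baselines and Hill slope.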

[4] = biological target: T4, human JAK1 (a.a. 837-1142) (Homo sapiens, UniProt P23458); experiment: In vitro JAK kinase assay (HTRF, phosphorylation of a biotinylated peptide), JAK1; conditions: Table B1; read-out: JAK1 IC50
T4 construct: human JAK1 (a.a. 837-1142); His tag (N); made in house; host or cells: insect cells (baculovirus)
In short: as §1

T2 sequence (P52333 781-1124): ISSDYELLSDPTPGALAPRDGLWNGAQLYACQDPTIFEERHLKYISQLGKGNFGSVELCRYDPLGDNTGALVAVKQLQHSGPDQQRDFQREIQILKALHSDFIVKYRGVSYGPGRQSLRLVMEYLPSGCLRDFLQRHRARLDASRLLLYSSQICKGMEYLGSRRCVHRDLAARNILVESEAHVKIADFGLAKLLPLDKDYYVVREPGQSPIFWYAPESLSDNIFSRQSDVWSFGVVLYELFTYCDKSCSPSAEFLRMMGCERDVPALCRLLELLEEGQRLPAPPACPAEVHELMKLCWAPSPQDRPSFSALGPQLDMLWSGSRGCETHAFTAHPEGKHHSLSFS
T4 sequence (P23458 849-1154): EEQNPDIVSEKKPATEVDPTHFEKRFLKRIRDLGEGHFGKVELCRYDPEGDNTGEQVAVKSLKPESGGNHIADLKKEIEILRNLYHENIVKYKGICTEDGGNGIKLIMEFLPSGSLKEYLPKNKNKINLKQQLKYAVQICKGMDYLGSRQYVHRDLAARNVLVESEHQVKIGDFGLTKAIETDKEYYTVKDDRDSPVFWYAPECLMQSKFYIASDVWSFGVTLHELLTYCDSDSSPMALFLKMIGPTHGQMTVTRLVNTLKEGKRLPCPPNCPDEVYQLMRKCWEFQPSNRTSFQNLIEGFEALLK
T1 sequence (O60674 828-1132): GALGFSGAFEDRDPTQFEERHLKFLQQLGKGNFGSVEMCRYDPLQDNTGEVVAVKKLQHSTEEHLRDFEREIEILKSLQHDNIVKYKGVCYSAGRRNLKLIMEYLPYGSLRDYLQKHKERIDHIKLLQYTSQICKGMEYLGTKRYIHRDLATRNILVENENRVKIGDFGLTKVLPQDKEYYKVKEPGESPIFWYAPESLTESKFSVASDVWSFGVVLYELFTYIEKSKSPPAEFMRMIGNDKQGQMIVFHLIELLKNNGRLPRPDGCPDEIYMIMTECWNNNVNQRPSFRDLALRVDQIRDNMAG
T3 sequence (Q9UM73 19-1620): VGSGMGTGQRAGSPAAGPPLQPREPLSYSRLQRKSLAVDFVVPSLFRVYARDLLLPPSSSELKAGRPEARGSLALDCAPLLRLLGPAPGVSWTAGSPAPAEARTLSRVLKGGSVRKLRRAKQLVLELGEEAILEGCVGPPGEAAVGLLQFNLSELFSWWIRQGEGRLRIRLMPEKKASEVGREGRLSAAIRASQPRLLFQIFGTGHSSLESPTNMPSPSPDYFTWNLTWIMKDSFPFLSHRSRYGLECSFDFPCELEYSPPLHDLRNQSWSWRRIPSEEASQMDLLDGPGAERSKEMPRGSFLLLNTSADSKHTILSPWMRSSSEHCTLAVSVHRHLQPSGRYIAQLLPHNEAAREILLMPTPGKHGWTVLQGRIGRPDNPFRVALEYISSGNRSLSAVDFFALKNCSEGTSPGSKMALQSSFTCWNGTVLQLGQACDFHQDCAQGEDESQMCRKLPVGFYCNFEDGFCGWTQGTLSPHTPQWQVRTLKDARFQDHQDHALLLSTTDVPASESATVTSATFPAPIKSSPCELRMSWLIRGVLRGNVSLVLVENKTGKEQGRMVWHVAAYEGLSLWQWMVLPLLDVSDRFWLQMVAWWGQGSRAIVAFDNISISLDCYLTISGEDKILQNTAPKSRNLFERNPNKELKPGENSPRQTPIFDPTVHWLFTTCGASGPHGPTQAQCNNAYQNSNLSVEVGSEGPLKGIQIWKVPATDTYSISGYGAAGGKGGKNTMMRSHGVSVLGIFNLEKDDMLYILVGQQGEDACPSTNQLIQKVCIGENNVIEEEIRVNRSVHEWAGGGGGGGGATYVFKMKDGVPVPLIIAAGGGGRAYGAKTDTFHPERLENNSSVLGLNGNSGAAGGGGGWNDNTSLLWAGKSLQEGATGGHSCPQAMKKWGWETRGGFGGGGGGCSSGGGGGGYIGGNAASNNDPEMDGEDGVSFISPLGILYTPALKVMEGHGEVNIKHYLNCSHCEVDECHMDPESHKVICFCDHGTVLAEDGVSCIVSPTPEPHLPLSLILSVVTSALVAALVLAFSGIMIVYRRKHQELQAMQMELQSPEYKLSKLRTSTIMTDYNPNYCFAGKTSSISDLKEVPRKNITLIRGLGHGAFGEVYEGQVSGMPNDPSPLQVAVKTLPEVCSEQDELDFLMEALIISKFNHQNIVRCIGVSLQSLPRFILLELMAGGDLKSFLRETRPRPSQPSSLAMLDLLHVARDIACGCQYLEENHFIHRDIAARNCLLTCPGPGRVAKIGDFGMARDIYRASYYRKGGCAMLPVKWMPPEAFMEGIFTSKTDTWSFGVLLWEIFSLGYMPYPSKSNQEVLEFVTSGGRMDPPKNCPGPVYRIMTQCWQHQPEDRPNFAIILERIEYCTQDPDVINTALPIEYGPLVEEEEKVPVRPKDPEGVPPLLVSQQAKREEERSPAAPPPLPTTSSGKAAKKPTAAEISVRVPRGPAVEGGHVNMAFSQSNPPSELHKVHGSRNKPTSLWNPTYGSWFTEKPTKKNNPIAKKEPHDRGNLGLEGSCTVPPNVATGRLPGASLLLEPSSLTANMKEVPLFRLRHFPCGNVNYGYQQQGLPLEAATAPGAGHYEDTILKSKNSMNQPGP
TYK2, sequence (P29597 whole entry): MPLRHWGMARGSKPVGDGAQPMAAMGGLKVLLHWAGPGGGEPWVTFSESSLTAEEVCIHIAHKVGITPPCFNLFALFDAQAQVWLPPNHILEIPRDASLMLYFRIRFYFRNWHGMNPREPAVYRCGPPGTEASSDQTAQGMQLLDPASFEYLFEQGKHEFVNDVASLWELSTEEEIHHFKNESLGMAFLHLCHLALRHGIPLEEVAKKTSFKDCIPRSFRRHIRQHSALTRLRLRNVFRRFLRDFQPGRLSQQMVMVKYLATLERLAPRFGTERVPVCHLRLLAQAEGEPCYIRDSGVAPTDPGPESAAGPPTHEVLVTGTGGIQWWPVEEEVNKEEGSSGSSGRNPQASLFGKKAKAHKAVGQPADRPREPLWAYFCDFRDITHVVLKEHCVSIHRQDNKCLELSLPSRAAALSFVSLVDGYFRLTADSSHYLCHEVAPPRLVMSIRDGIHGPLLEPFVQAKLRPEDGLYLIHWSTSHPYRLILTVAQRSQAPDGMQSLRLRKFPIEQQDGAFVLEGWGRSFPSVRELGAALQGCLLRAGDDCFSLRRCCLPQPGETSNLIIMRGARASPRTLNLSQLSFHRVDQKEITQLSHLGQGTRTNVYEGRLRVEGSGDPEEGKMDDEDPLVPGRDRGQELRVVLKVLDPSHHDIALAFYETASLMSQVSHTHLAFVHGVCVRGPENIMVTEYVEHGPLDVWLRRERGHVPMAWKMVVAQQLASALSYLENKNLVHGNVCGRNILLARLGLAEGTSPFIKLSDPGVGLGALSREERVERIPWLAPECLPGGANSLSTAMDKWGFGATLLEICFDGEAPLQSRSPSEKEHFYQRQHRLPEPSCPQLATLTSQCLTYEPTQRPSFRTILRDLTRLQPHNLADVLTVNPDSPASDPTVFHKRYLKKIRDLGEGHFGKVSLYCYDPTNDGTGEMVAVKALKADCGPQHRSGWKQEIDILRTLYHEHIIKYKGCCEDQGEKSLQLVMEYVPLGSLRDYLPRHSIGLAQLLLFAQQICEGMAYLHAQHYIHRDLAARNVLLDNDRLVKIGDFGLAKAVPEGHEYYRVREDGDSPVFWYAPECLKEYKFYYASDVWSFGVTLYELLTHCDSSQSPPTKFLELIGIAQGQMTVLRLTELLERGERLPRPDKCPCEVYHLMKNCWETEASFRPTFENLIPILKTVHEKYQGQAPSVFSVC

Row | IC50 [1] [nM] | IC50 (TYK2) [nM] | IC50 [2] [nM] | IC50 [3] [nM] | IC50 [4] [nM] | Compound
1 | 0.44 | 1.7 | 2.6 | 160 | 0.96 | O=C(Nc1ccc2cc1CCc1cccc(c1)Nc1ncc(Cl)c(n1)N2)c1cccc(F)c1 [Example B48, N-[6-Chloro-2,4,8,22-tetraazatetracyclo[14.3.1.1(3,7).1(9,13)]docosa-1(20), 3(22),4,6,9(21),10,12,16,18-nonaen-12-yl]-3-fluorobenzamide trifluoroacetate]
2 | 0.54 | 1.4 | 3.6 | 80 | 0.59 | O=C(Nc1ccc2cc1CCc1cccc(c1)Nc1ncc(Cl)c(n1)N2)c1ccc(F)cc1 [Example B49, N-[6-Chloro-2,4,8,22-tetraazatetracyclo[14.3.1.1(3,7).1(9,13)]docosa-1(20), 3(22),4,6,9(21),10,12,16,18-nonaen-12-yl]-4-fluorobenzamide trifluoroacetate]
3 | 0.28 | 2.3 | 2.5 | 230 | 0.44 | Cn1cccc1C(=O)Nc1ccc2cc1CCc1cccc(c1)Nc1ncc(Cl)c(n1)N2 [Example B50, N-[6-Chloro-2,4,8,22-tetraazatetracyclo[14.3.1.1(3,7).1(9,13)]docosa-1(20), 3(22),4,6,9(21),10,12,16,18-nonaen-12-yl]-1-methyl-1H-pyrrole-2-carboxamide trifluoroacetate]
4 | 0.91 | 3.3 | 4.7 | 300 | 2.7 | Cn1cncc1C(=O)Nc1ccc2cc1CCc1cccc(c1)Nc1ncc(Cl)c(n1)N2 [Example B51, N-[6-Chloro-2,4,8,22-tetraazatetracyclo[14.3.1.1(3,7).1(9,13)]docosa-1(20), 3(22),4,6,9(21),10,12,16,18-nonaen-12-yl]-1-methyl-1H-imidazole-5-carboxamide bis(trifluoroacetate)]
5 | 1.8 | 6.3 | 17 | 910 | 3.7 | O=C(Nc1ccc2cc1CCc1cccc(c1)Nc1ncc(Cl)c(n1)N2)c1nccs1 [Example B52, N-[6-Chloro-2,4,8,22-tetraazatetracyclo[14.3.1.1(3,7).1(9,13)]docosa-1(20), 3(22),4,6,9(21),10,12,16,18-nonaen-12-yl]-1,3-thiazole-2-carboxamide trifluoroacetate]
6 | 2.3 | 8 | 17 | 720 | 2.8 | O=C(Nc1ccc2cc1CCc1cccc(c1)Nc1ncc(Cl)c(n1)N2)c1ccno1 [Example B53, N-[6-Chloro-2,4,8,22-tetraazatetracyclo[14.3.1.1(3,7).1(9,13)]docosa-1(20), 3(22),4,6,9(21),10,12,16,18-nonaen-12-yl]isoxazole-5-carboxamide trifluoroacetate]
7 | 3.9 | 14 | 5.9 | 970 | 4.9 | CCC(=O)Nc1ccc2cc1CCc1cccc(c1)Nc1ncc(Cl)c(n1)N2 [Example B54, N-[6-Chloro-2,4,8,22-tetraazatetracyclo[14.3.1.1(3,7).1(9,13)]docosa-1(20), 3(22),4,6,9(21),10,12,16,18-nonaen-12-yl]propanamide trifluoroacetate]
8 | 2.4 | 5.3 | 5.1 | 700 | 2.4 | O=C(Nc1ccc2cc1CCc1cccc(c1)Nc1ncc(Cl)c(n1)N2)c1ccoc1 [Example B59, N-[6-Chloro-2,4,8,22-tetraazatetracyclo[14.3.1.1(3,7).1(9,13)]docosa-1(20), 3(22),4,6,9(21),10,12,16,18-nonaen-12-yl]-3-furamide trifluoroacetate]
9 | 1.9 | 2.7 | 4.8 | 210 | 1.8 | O=C(Nc1ccc2cc1CCc1cccc(c1)Nc1ncc(Cl)c(n1)N2)c1ccsc1 [Example B62, N-[6-Chloro-2,4,8,22-tetraazatetracyclo[14.3.1.1(3,7).1(9,13)]docosa-1(20), 3(22),4,6,9(21),10,12,16,18-nonaen-12-yl]thiophene-3-carboxamide trifluoroacetate]

The remaining lines, values behind:

Row | Compound | IC50 [1] [nM] | IC50 (TYK2) [nM] | IC50 [2] [nM] | IC50 [3] [nM] | IC50 [4] [nM]
10 | CC(C)C(=O)Nc1ccc2cc1CCc1cccc(c1)Nc1ncc(Cl)c(n1)N2 [Example B55, N-[6-Chloro-2,4,8,22-tetraazatetracyclo[14.3.1.1(3,7).1(9,13)]docosa-1(20), 3(22),4,6,9(21),10,12,16,18-nonaen-12-yl]-2-methylpropanamide trifluoroacetate] | 2.7 | 23 | 1.1 | 930 | 12
11 | CCCC(=O)Nc1ccc2cc1CCc1cccc(c1)Nc1ncc(Cl)c(n1)N2 [Example B56, N-[6-Chloro-2,4,8,22-tetraazatetracyclo[14.3.1.1(3,7).1(9,13)]docosa-1(20), 3(22),4,6,9(21),10,12,16,18-nonaen-12-yl]butanamide trifluoroacetate] | 2 | 14 | 1.5 | 720 | 5.9
12 | O=C(Nc1ccc2cc1CCc1cccc(c1)Nc1ncc(Cl)c(n1)N2)C1CCC1 [Example B57, N-[6-Chloro-2,4,8,22-tetraazatetracyclo[14.3.1.1(3,7).1(9,13)]docosa-1(20), 3(22),4,6,9(21),10,12,16,18-nonaen-12-yl]cyclobutanecarboxamide hydrochloride] | 5.3 | 39 | 18 | 2200 | 12
13 | CC(C)(C)C(=O)Nc1ccc2cc1CCc1cccc(c1)Nc1ncc(Cl)c(n1)N2 [Example B58, N-[6-Chloro-2,4,8,22-tetraazatetracyclo[14.3.1.1(3,7).1(9,13)]docosa-1(20), 3(22),4,6,9(21),10,12,16,18-nonaen-12-yl]-2,2-dimethylpropanamide trifluoroacetate] | 47 | 228 | 107 | > 1000 | 365
14 | O=C(Nc1ccc2cc1CCc1cccc(c1)Nc1ncc(Cl)c(n1)N2)C1CCCC1 [Example B60, N-[6-Chloro-2,4,8,22-tetraazatetracyclo[14.3.1.1(3,7).1(9,13)]docosa-1(20), 3(22),4,6,9(21),10,12,16,18-nonaen-12-yl]cyclopentanecarboxamide trifluoroacetate] | 8.4 | 47 | 20 | > 1000 | 22
15 | CCC(C)C(=O)Nc1ccc2cc1CCc1cccc(c1)Nc1ncc(Cl)c(n1)N2 (centres unmarked) [Example B61, N-[6-Chloro-2,4,8,22-tetraazatetracyclo[14.3.1.1(3,7).1(9,13)]docosa-1(20), 3(22),4,6,9(21),10,12,16,18-nonaen-12-yl]-2-methylbutanamide trifluoroacetate] | 1.4 | 34 | 3 | 680 | 19
16 | O=C(Nc1ccc2cc1CCc1cccc(c1)Nc1ncc(Cl)c(n1)N2)C1CCCCC1 [Example B63, N-[6-Chloro-2,4,8,22-tetraazatetracyclo[14.3.1.1(3,7).1(9,13)]docosa-1(20), 3(22),4,6,9(21),10,12,16,18-nonaen-12-yl]cyclohexanecarboxamide trifluoroacetate] | 12 | 34 | 56 | 600 | 18
